Measurements from patent publication US10689414B2 (Agios Pharmaceuticals, Inc., priority 2013, dated 2020).
pIC50: −log10 of the molar value.

System: U87MG cells
Experiment: Cellular assay, inhibition of 2-HG production in U87MG cells
Type: cell-based
Procedure: Cells (HT1080 or U87MG) are grown in T125 flasks in DMEM containing 10% FBS, 1× penicillin/streptomycin and 500 ug/mL G418 (present in U87MG cells only). They are harvested by trypsin and seeded into 96 well white bottom plates at a density of 5000 cell/well in 100 ul/well in DMEM with 10% FBS. […] Cells are incubated overnight at 37° C. in 5% CO2. The next day test compounds are made up at 2× the final concentration and 100 ul are added to each cell well. The final concentration of DMSO is 0.2% and the DMSO control wells are plated in row G. The plates are then placed in the incubator for 48 hours. […] The cell plate is placed back in the incubator for another 24 hours. At 72 hours post compound addition, 10 mL/plate of Promega Cell Titer Glo reagent is thawed and mixed. The cell plate is removed from the incubator and allowed to equilibrate to room temperature. Then 100 ul of Promega Cell Titer Glo reagent is added to each well of media. The cell plate is then placed on an orbital shaker for 10 minutes and then allowed to sit at room temperature for 20 minutes. The plate is then read for luminescence with an integration time of 500 ms.

Compound	pIC50 (Homo sapiens, U-87 MG, 48 h)	pIC50 (inhibition of 2-HG production, U87MG cells, 48 hours)
N#Cc1ccnc(N2C(=O)CC[C@H]2C(=O)N(c2cccc(F)c2F)[C@H](C(=O)NC2CC(F)(F)C2)c2ccccc2Cl)c1 [Compound 188, (S)—N—((S)-1-(2-Chlorophenyl)-2-((3,3-difluorocyclobutyl)amino)-2-oxoethyl)-1-(4-cyanopyridin-2-yl)-N-(2,3-difluorophenyl)-5-oxopyrrolidine-2-carboxamide]	> 7.00	
N#Cc1ccnc(N2C(=O)CC[C@H]2C(=O)N(c2cccc(C3(O)CC3)c2)[C@H](C(=O)NC2CC(F)(F)C2)c2ccccc2Cl)c1 [Compound 140, (S)—N—((S)-1-(2-Xhlorophenyl)-2-(3,3-difluorocyclobutylamino)-2-oxoethyl)-1-(4-cyanopyridin-2-yl)-N-(3-(1-hydroxycyclopropyl)phenyl)-5-oxopyrrolidine-2-carboxamide]		> 7.00
N#Cc1ccnc(N2C(=O)CC[C@H]2C(=O)N(c2cccc(-c3cn[nH]c3)c2)[C@H](C(=O)NC2CC(F)(F)C2)c2ccccc2Cl)c1 (single isomer, unassigned) [Compound 200]	> 7.00	
N#Cc1cccc(N(C(=O)[C@@H]2C[C@@H](O)C(=O)N2c2cc(C#N)ccn2)C(C(=O)NC2CC(F)(F)C2)c2ccccc2Cl)c1 (stereo partly drawn) [Compound 170, (2S,4R)—N-(1-(2-chlorophenyl)-2-((3,3-difluorocyclobutyl)amino)-2-oxoethyl)-N-(3-cyano-phenyl)-1-(4-cyanopyridin-2-yl)-4-hydroxy-5-oxopyrrolidine-2-carboxamide]	> 7.00	
N#Cc1ccnc(N2C(=O)CC[C@H]2C(=O)N(c2ccc3[nH]ncc3c2)[C@H](C(=O)NC2CC(F)(F)C2)c2ccccc2Cl)c1 [Compound 175, (S)—N—((S)-1-(2-Chlorophenyl)-2-((3,3-difluorocyclobutyl)amino)-2-oxoethyl)-1-(4-cyanopyri-din-2-yl)-N-(1H-indazol-5-yl)-5-oxopyrrolidine-2-carboxamide]	> 7.00	
N#Cc1ccnc(N2C(=O)CC[C@H]2C(=O)N(c2cc(F)cc(C3CC3)c2)[C@H](C(=O)NC2CC(F)(F)C2)c2ccccc2Cl)c1 [Compound 204, (S)—N—((S)-1-(2-Chlorophenyl)-2-((3,3-difluorocyclobutyl)amino)-2-oxoethyl)-1-(4-cyanopyri-din-2-yl)-N-(3-cyclopropyl-5-fluorophenyl)-5-oxopyrrolidine-2-carboxamide]	> 7.00	
N#Cc1ccnc(N2C(=O)CC[C@H]2C(=O)N(c2cc(F)cc(F)c2)[C@H](C(=O)NC2CCC(F)(F)CC2)c2ccccc2Cl)n1 [Compound 87, (S)—N—((S)-1-(2-Chlorophenyl)-2-((4,4-difluorocyclohexyl)amino)-2-oxoethyl)-1-(4-cyanopyrimidin-2-yl)-N-(3,5-difluorophenyl)-5-oxopyrrolidine-2-carboxamide]	> 7.00	
N#Cc1ccnc(N2C(=O)CC[C@H]2C(=O)N(c2cccc(OC(F)F)c2)[C@H](C(=O)NC2CC(F)(F)C2)c2ccccc2Cl)c1 [Compound 181, (S)—N—((S)-1-(2-Chlorophenyl)-2-((3,3-difluorocyclobutyl)amino)-2-oxoethyl)-1-(4-cyanopyridin-2-yl)-N-(3-(difluoromethoxy)phenyl)-5-oxopyrrolidine-2-carboxamide]	> 7.00	
CC(C)(O)c1cc(F)cc(N(C(=O)[C@@H]2COC(=O)N2c2cc(C#N)ccn2)C(C(=O)NC2CC(F)(F)C2)c2ccccc2Cl)c1 (mixture of isomers) [Compound 145, (4S)—N-(1-(2-Chlorophenyl)-2-(3,3-difluorocyclobutylamino)-2-oxoethyl)-3-(4-cyanopyridin-2-yl)-N-(3-fluoro-5-(2-hydroxypropan-2-yl)phenyl)-2-oxooxazolidine-4-carboxamide]	> 7.00	
N#Cc1ccnc(N2C(=O)CC[C@H]2C(=O)N(c2cc(F)cc(F)c2)[C@H](C(=O)NC2CC(F)(F)C2)c2ccccc2)c1 [Compound 210, (S)-1-(4-Cyanopyridin-2-yl)-N—((S)-2-(3,3-difluorocyclobutylamino)-2-oxo-1-phenylethyl)-N-(3,5-difluorophenyl)-5-oxopyrrolidine-2-carboxamide]	> 7.00	
N#Cc1ccnc(N2C(=O)[C@H](O)C[C@H]2C(=O)N(c2cc(F)cc(F)c2)[C@@H](C(=O)NC2CCC(F)(F)CC2)c2ccccc2Cl)c1 [Compound 124, (2S,4R)—N—((R)-1-(2-Chlorophenyl)-2-(4,4-difluorocyclohexylamino)-2-oxoethyl)-1-(4-cyanopyridin-2-yl)-N-(3,5-difluorophenyl)-4-hydroxy-5-oxopyrrolidine-2-carboxamide]	> 7.00	
CS(=O)(=O)c1cc(F)cc(N(C(=O)[C@@H]2CCC(=O)N2c2nccc(C#N)n2)[C@H](C(=O)NC2CCC(F)(F)CC2)c2ccccc2Cl)c1 [Compound 168, (S)—N—((S)-1-(2-Chlorophenyl)-2-((4,4-difluorocyclohexyl)amino)-2-oxoethyl)-1-(4-cyanopyrimidin-2-yl)-N-(3-fluoro-5-(methylsulfonyl)phenyl)-5-oxopyrrolidine-2-carboxamide]	> 7.00	
N#Cc1ccnc(N2C(=O)OCC[C@H]2C(=O)N(c2cncc(F)c2)[C@H](C(=O)NC2CC(F)(F)C2)c2ccccc2Cl)c1 [Compound 143, (S)—N—((S)-1-(2-Chlorophenyl)-2-((3,3-difluorocyclobutyl)amino)-2-oxoethyl)-3-(4-cyanopyridin-2-yl)-N-(5-fluoropyridin-3-yl)-2-oxo-1,3-oxazinane-4-carboxamide]	> 7.00	
N#Cc1cc(F)cc(N(C(=O)[C@@H]2C[C@@H](O)C(=O)N2c2cc(C#N)ccn2)C(C(=O)NC2CC(F)(F)C2)c2ccccc2Cl)c1 (mixture of isomers) [Compound 169, (2S,4R)—N-(1-(2-Chlorophenyl)-2-(3,3-difluorocyclobutylamino)-2-oxoethyl)-N-(3-cyano-5-fluorophenyl)-1-(4-cyanopyridin-2-yl)-4-hydroxy-5-oxopyrrolidine-2-carboxamide]	> 7.00	
N#Cc1cccnc1N1C(=O)CC[C@H]1C(=O)N(c1cccc(F)c1)[C@H](C(=O)NC1CC(F)(F)C1)c1ccccc1Cl [Compound 69, (S)—N—((S)-1-(2-Chlorophenyl)-2-((3,3-difluorocyclobutyl)amino)-2-oxoethyl)-1-(3-cyanopyri-din-2-yl)-N-(3-fluorophenyl)-5-oxopyrrolidine-2-carboxamide]	> 7.00	
N#Cc1ccnc(N2C(=O)CNC[C@H]2C(=O)N(c2cc(F)cc(F)c2)[C@H](C(=O)NC2CC(F)(F)C2)c2ccccc2Cl)n1 [Compound 99, (S)—N—((S)-1-(2-chlorophenyl)-2-((3,3-difluorocyclobutyl)amino)-2-oxoethyl)-1-(4-cyanopyrimidin-2-yl)-N-(3,5-difluorophenyl)-6-oxopiperazine-2-carboxamide]	> 7.00	
N#Cc1ccnc(N2C(=O)CC[C@H]2C(=O)N(c2cccc(OCCO)c2)[C@H](C(=O)NC2CC(F)(F)C2)c2ccccc2Cl)c1 [Compound 130, (S)—N—((S)-1-(2-Chlorophenyl)-2-((3,3-difluorocyclobutyl)amino)-2-oxoethyl)-1-(4-cyanopyridin-2-yl)-N-(3-(2-hydroxyethoxy)phenyl)-5-oxopyrrolidine-2-carboxamide]	> 7.00	
N#Cc1ccc(N2C(=O)CC[C@H]2C(=O)N(c2cccc(F)c2)[C@H](C(=O)NC2CC(F)(F)C2)c2ccccc2Cl)nc1 [Compound 47]	6.30 to 7.00	
N#Cc1ccnc(N2C(=O)CC[C@H]2C(=O)N(c2cc(F)cc(F)c2)[C@H](C(=O)NC2CC(F)(F)C2)c2cc(Cl)ccc2Cl)c1 [Compound 201, (S)-1-(4-Cyanopyridin-2-yl)-N—((S)-1-(2,5-dichlorophenyl)-2-((3,3-difluorocyclobutyl)-amino)-2-oxoethyl)-N-(3,5-difluorophenyl)-5-oxopyrrolidine-2-carboxamide]	> 7.00	
N#Cc1ccnc(N2C(=O)[C@H](O)C[C@H]2C(=O)N(c2cccc(F)c2)[C@@H](C(=O)NC2CCC(F)(F)CC2)c2ccccc2Cl)n1 [Compound 122, (2S,4R)—N—((R)-1-(2-Chlorophenyl)-2-((4,4-difluorocyclohexyl)amino)-2-oxoethyl)-1-(4-cyanopyrimidin-2-yl)-N-(3-fluorophenyl)-4-hydroxy-5-oxopyrrolidine-2-carboxamide]	6.30 to 7.00	
N#Cc1ccnc(N2C(=O)CNC[C@H]2C(=O)N(c2cc(F)cc(F)c2)[C@H](C(=O)NC2CC(F)(F)C2)c2ccccc2Cl)c1 [Compound 100, (S)—N—((S)-1-(2-Chlorophenyl)-2-((3,3-difluorocyclobutyl)amino)-2-oxoethyl)-1-(4-cyanopyridin-2-yl)-N-(3,5-difluorophenyl)-6-oxopiperazine-2-carboxamide]	> 7.00	
CC(C)(O)c1cc(F)cc(N(C(=O)[C@@H]2CCOC(=O)N2c2cc(C#N)ccn2)[C@H](C(=O)NC2CC(F)(F)C2)c2ccccc2Cl)c1 [Compound 146, (S)—N—((S)-1-(2-Chlorophenyl)-2-(3,3-difluorocyclobutylamino)-2-oxoethyl)-3-(4-cyanopyridin-2-yl)-N-(3-fluoro-5-(2-hydroxypropan-2-yl)phenyl)-2-oxo-1,3-oxazinane-4-carboxamide]	> 7.00	
CN1C[C@@H](C(=O)N(c2cccc(F)c2)C(C(=O)NC2CC(F)(F)C2)c2ccccc2Cl)N(c2cc(C#N)ccn2)C1=O (stereo partly drawn) [Compound 79, (4S)—N-(1-(2-chlorophenyl)-2-((3,3-difluorocyclobutyl)amino)-2-oxoethyl)-3-(4-cyanopyridin-2-yl)-N-(3-fluorophenyl)-1-methyl-2-oxoimidazolidine-4-carboxamide]	> 7.00	
